# Experimental data as given in ChEMBL document CHEMBL1201861, “Genomics of Drug Sensitity in Cancer screening data, Wellcome Trust Sanger Institute”.
# Tests used:
# Assay in all cases: cells
# [1] = system: COLO-829; format: functional, cell-based, Homo sapiens; details: Homo sapiens, COLO-829
# Description: SANGER: Inhibition of human COLO-829 cell growth in a cell viability assay.
# [2] = system: CP66-MEL; format: functional, cell-based, Homo sapiens; details: Homo sapiens, CP66-MEL;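 also: growth inhibition of CP66-MEL cells determined in a cell viability assay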
# Description: SANGER: Inhibition of human CP66-MEL cell growth in a cell viability assay.
# [3] = system: D-502MG; format: functional, cell-based, Homo sapiens; details: Homo sapiens, D-502MG
# Description: SANGER: Inhibition of human D-502MG cell growth in a cell viability assay.
# [4] = system: DOHH-2; format: functional, cell-based, Homo sapiens; details: Homo sapiens, DOHH-2;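 also: growth inhibition of human DOHH-2 cells, read out with a cell viability assay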
# Description: SANGER: Inhibition of human DOHH-2 cell growth in a cell viability assay.
# [5] = system: EM-2; format: functional, cell-based, Homo sapiens; details: Homo sapiens, EM-2;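 also: growth inhibition of EM-2 cells, read out with a cell viability assay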
# Description: SANGER: Inhibition of human EM-2 cell growth in a cell viability assay.
# [6] = system: ES1; format: functional, cell-based, Homo sapiens; details: Homo sapiens, ES1;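 also: growth inhibition of ES1 cells, read out with a cell viability assay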
# Description: SANGER: Inhibition of human ES1 cell growth in a cell viability assay.
# [7] = system: ES7; format: functional, cell-based, Homo sapiens; details: Homo sapiens, ES7;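 also: growth inhibition of cultured human ES7 cells, read out as cell viability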
# Description: SANGER: Inhibition of human ES7 cell growth in a cell viability assay.
# [8] = system: ES8; format: functional, cell-based, Homo sapiens; details: Homo sapiens, ES8;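 also: growth inhibition of human ES8 cells, read out with a cell viability assay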
# Description: SANGER: Inhibition of human ES8 cell growth in a cell viability assay.
# [9] = system: ETK-1; format: functional, cell-based, Homo sapiens; details: Homo sapiens, ETK-1;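 also: growth inhibition of human ETK-1 cells, read out with a cell viability assay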
# Description: SANGER: Inhibition of human ETK-1 cell growth in a cell viability assay.
# [10] = system: EW-13; format: functional, cell-based, Homo sapiens; details: Homo sapiens, EW-13;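 also: growth inhibition of EW-13 cells, read out with a cell viability assay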
# Description: SANGER: Inhibition of human EW-13 cell growth in a cell viability assay.
# [11] = system: EW-16; format: functional, cell-based, Homo sapiens; details: Homo sapiens, EW-16;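 also: growth inhibition of human EW-16 cells, read out as cell viability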
# Description: SANGER: Inhibition of human EW-16 cell growth in a cell viability assay.
# [12] = system: EW-3; format: functional, cell-based, Homo sapiens; details: Homo sapiens, EW-3;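 also: cell viability assay read-out, IC50 reflects inhibition of growth of the EW-3 cells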
# Description: SANGER: Inhibition of human EW-3 cell growth in a cell viability assay.
# [13] = system: GI-ME-N; format: functional, cell-based, Homo sapiens; details: Homo sapiens, GI-ME-N;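 also: growth inhibition of human GI-ME-N cells, read out with a cell viability assay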
# Description: SANGER: Inhibition of human GI-ME-N cell growth in a cell viability assay.
# [14] = system: GOTO; format: functional, cell-based, Homo sapiens; details: Homo sapiens, GOTO;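 also: growth inhibition of GOTO cells, read out by a cell viability assay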
# Description: SANGER: Inhibition of human GOTO cell growth in a cell viability assay.
# [15] = system: GR-ST; format: functional, cell-based, Homo sapiens; details: Homo sapiens, GR-ST
# Description: SANGER: Inhibition of human GR-ST cell growth in a cell viability assay.
# [16] = system: HCC1187; format: functional, cell-based, Homo sapiens; details: Homo sapiens, HCC1187;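 also: growth inhibition of HCC1187 cells, read out with a cell viability assay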
# Description: SANGER: Inhibition of human HCC1187 cell growth in a cell viability assay.
# [17] = system: HCE-4; format: functional, cell-based, Homo sapiens; details: Homo sapiens, HCE-4;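 also: cell viability assay measuring inhibition of growth in the human HCE-4 cell line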
# Description: SANGER: Inhibition of human HCE-4 cell growth in a cell viability assay.
# [18] = system: HH; format: functional, cell-based, Homo sapiens; details: Homo sapiens, HH
# Description: SANGER: Inhibition of human HH cell growth in a cell viability assay.
# [19] = system: HL-60; format: functional, cell-based, Homo sapiens; details: Homo sapiens, HL-60;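 also: growth inhibition of human HL-60 cells, read out with a cell viability assay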
# Description: SANGER: Inhibition of human HL-60 cell growth in a cell viability assay.
# [20] = system: HT-144; format: functional, cell-based, Homo sapiens; details: Homo sapiens, HT-144
# Description: SANGER: Inhibition of human HT-144 cell growth in a cell viability assay.
# [21] = system: IA-LM; format: functional, cell-based, Homo sapiens; details: Homo sapiens, IA-LM;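 also: cell viability assay measuring growth inhibition of human IA-LM cells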
# Description: SANGER: Inhibition of human IA-LM cell growth in a cell viability assay.
# [22] = system: IST-SL1; format: functional, cell-based, Homo sapiens; details: Homo sapiens, IST-SL1;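 also: growth inhibition of human IST-SL1 cells, read out with a cell viability assay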
# Description: SANGER: Inhibition of human IST-SL1 cell growth in a cell viability assay.
# [23] = system: JVM-3; format: functional, cell-based, Homo sapiens; details: Homo sapiens, JVM-3;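 also: growth inhibition of human JVM-3 cells, read out with a cell viability assay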
# Description: SANGER: Inhibition of human JVM-3 cell growth in a cell viability assay.
# [24] = system: K5; format: functional, cell-based, Homo sapiens; details: Homo sapiens, K5
# Description: SANGER: Inhibition of human K5 cell growth in a cell viability assay.
# [25] = system: KGN; format: functional, cell-based, Homo sapiens; details: Homo sapiens, KGN;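 also: growth inhibition of KGN cells, read out with a cell viability assay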
# Description: SANGER: Inhibition of human KGN cell growth in a cell viability assay.
# [26] = system: KM-H2; format: functional, cell-based, Homo sapiens; details: Homo sapiens, KM-H2;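 also: growth inhibition of KM-H2 cells, read out by a cell viability assay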
# Description: SANGER: Inhibition of human KM-H2 cell growth in a cell viability assay.
# [27] = system: LB1047-RCC; format: functional, cell-based, Homo sapiens; details: Homo sapiens, LB1047-RCC;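 also: inhibition of cell growth, determined with a cell viability assay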
# Description: SANGER: Inhibition of human LB1047-RCC cell growth in a cell viability assay.
# [28] = system: LB2241-RCC; format: functional, cell-based, Homo sapiens; details: Homo sapiens, LB2241-RCC;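 also: cell viability assay measuring how strongly the cultured human renal carcinoma line is prevented from growing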
# Description: SANGER: Inhibition of human LB2241-RCC cell growth in a cell viability assay.
# [29] = system: ML-2; format: functional, cell-based, Homo sapiens; details: Homo sapiens, ML-2;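 also: growth inhibition of ML-2 cells, measured with a cell viability readout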
# Description: SANGER: Inhibition of human ML-2 cell growth in a cell viability assay.
# [30] = system: NB6; format: functional, cell-based, Homo sapiens; details: Homo sapiens, NB6;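 also: growth inhibition of NB6 cells, read out by a cell viability assay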
# Description: SANGER: Inhibition of human NB6 cell growth in a cell viability assay.
# [31] = system: NCI-H1092; format: functional, cell-based, Homo sapiens; details: Homo sapiens, NCI-H1092;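 also: cell growth inhibition measured with a cell viability assay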
# Description: SANGER: Inhibition of human NCI-H1092 cell growth in a cell viability assay.
# [32] = system: NCI-H1648; format: functional, cell-based, Homo sapiens; details: Homo sapiens, NCI-H1648;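 also: cell viability assay measuring inhibition of NCI-H1648 cell growth, from the Sanger screening data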
# Description: SANGER: Inhibition of human NCI-H1648 cell growth in a cell viability assay.
# [33] = system: NCI-H1650; format: functional, cell-based, Homo sapiens; details: Homo sapiens, NCI-H1650;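 also: growth inhibition of human NCI-H1650 cells measured by a cell viability assay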
# Description: SANGER: Inhibition of human NCI-H1650 cell growth in a cell viability assay.
# [34] = system: NCI-H209; format: functional, cell-based, Homo sapiens; details: Homo sapiens, NCI-H209;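 also: growth inhibition of human NCI-H209 cells, measured by a cell viability assay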
# Description: SANGER: Inhibition of human NCI-H209 cell growth in a cell viability assay.
# [35] = system: NCI-H510A; format: functional, cell-based, Homo sapiens; details: Homo sapiens, NCI-H510A;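 also: growth inhibition of NCI-H510A cells, read out with a cell viability assay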
# Description: SANGER: Inhibition of human NCI-H510A cell growth in a cell viability assay.
# [36] = system: NCI-H82; format: functional, cell-based, Homo sapiens; details: Homo sapiens, NCI-H82;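 also: growth inhibition of NCI-H82 cells, measured with a cell viability readout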
# Description: SANGER: Inhibition of human NCI-H82 cell growth in a cell viability assay.
# [37] = system: NMC-G1; format: functional, cell-based, Homo sapiens; details: Homo sapiens, NMC-G1;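 also: growth inhibition of the NMC-G1 cell line, measured with a cell viability read-out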
# Description: SANGER: Inhibition of human NMC-G1 cell growth in a cell viability assay.
# [38] = system: RKO; format: functional, cell-based, Homo sapiens; details: Homo sapiens, RKO;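 also: growth inhibition of human RKO cells, read out with a cell viability assay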
# Description: SANGER: Inhibition of human RKO cell growth in a cell viability assay.
# [39] = system: SF-126; format: functional, cell-based, Homo sapiens; details: Homo sapiens, SF-126;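 also: growth inhibition of human SF126 cells, read out with a cell viability assay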
# Description: SANGER: Inhibition of human SF126 cell growth in a cell viability assay.
# [40] = system: SHP77; format: functional, cell-based, Homo sapiens, SHP-77; details: Homo sapiens, SHP77;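 also: growth inhibition of human SHP-77 cells measured by a cell viability assay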
# Description: SANGER: Inhibition of human SHP-77 cell growth in a cell viability assay.
# [41] = system: SK-N-DZ; format: functional, cell-based, Homo sapiens; details: Homo sapiens, SK-N-DZ;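 also: growth inhibition of the cancer cell line, read out through a viability assay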
# Description: SANGER: Inhibition of human SK-N-DZ cell growth in a cell viability assay.
# [42] = system: SW 962; format: functional, cell-based, Homo sapiens; details: Homo sapiens, SW 962;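 also: growth inhibition of human SW962 cells, read out by a cell viability assay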
# Description: SANGER: Inhibition of human SW962 cell growth in a cell viability assay.
# [43] = system: A388; format: functional, cell-based, Homo sapiens; details: Homo sapiens, A388;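 also: growth inhibition of human A388 cells, read out with a cell viability assay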
# Description: SANGER: Inhibition of human A388 cell growth in a cell viability assay.
# [44] = system: A4-Fuk; format: functional, cell-based, Homo sapiens; details: Homo sapiens, A4-Fuk;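 also: growth inhibition of A4-Fuk cells, read out by a cell viability assay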
# Description: SANGER: Inhibition of human A4-Fuk cell growth in a cell viability assay.
# [45] = system: A498; format: functional, cell-based, Homo sapiens; details: Homo sapiens, A498;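 also: growth inhibition of human A498 cells, read out with a cell viability assay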
# Description: SANGER: Inhibition of human A498 cell growth in a cell viability assay.
# [46] = system: ALL-PO; format: functional, cell-based, Homo sapiens; details: Homo sapiens, ALL-PO;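 also: growth inhibition of ALL-PO cells, read out by a cell viability assay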
# Description: SANGER: Inhibition of human ALL-PO cell growth in a cell viability assay.
# [47] = system: AM-38; format: functional, cell-based, Homo sapiens; details: Homo sapiens, AM-38;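 also: growth inhibition of AM-38 cells of human origin, read out by a cell viability assay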
# Description: SANGER: Inhibition of human AM-38 cell growth in a cell viability assay.
# [48] = system: Becker; format: functional, cell-based, Homo sapiens; details: Homo sapiens, Becker;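 also: growth inhibition of Becker cells, read out with a cell viability assay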
# Description: SANGER: Inhibition of human Becker cell growth in a cell viability assay.
# [49] = system: TE-9; format: functional, cell-based, Homo sapiens; details: Homo sapiens, TE-9;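 also: cell growth inhibition, measured with a cell viability readout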
# Description: SANGER: Inhibition of human TE-9 cell growth in a cell viability assay.
# [50] = system: TGW; format: functional, cell-based, Homo sapiens; details: Homo sapiens, TGW;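 also: growth inhibition of human TGW cells, read out with a cell viability assay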
# Description: SANGER: Inhibition of human TGW cell growth in a cell viability assay.
structure (smiles),measurement,setting,value
N[C@@H](CSC(c1ccccc1)(c1ccccc1)c1ccccc1)C(=O)O [S-TRITYL-L-CYSTEINE],IC50,[1],> 5.12 µM
same,IC50,[2],3.44 µM
same,IC50,[3],> 5.12 µM
same,IC50,[4],0.867 µM
same,IC50,[5],> 5.12 µM
same,IC50,[6],1.64 µM
same,IC50,[7],> 5.12 µM
same,IC50,[8],0.432 µM
same,IC50,[9],5.04 µM
same,IC50,[10],> 5.12 µM
same,IC50,[11],1.62 µM
same,IC50,[12],4.92 µM
same,IC50,[13],2.28 µM
same,IC50,[14],> 5.12 µM
same,IC50,[15],2.97 µM
same,IC50,[16],> 5.12 µM
same,IC50,[17],0.469 µM
same,IC50,[18],3.51 µM
same,IC50,[19],> 5.12 µM
same,IC50,[20],0.31 µM
same,IC50,[21],1.39 µM
same,IC50,[22],4.34 µM
same,IC50,[23],> 5.12 µM
same,IC50,[24],1.04 µM
same,IC50,[25],0.622 µM
same,IC50,[26],2.9 µM
same,IC50,[27],2.6 µM
same,IC50,[28],> 5.12 µM
same,IC50,[29],2.09 µM
same,IC50,[30],3.91 µM
same,IC50,[31],> 5.12 µM
same,IC50,[32],0.602 µM
same,IC50,[33],> 5.12 µM
same,IC50,[34],4.75 µM
same,IC50,[35],1.38 µM
same,IC50,[36],1.2 µM
same,IC50,[37],3.4 µM
same,IC50,[38],0.677 µM
same,IC50,[39],3.01 µM
same,IC50,[40],> 5.12 µM
same,IC50,[41],3.14 µM
same,IC50,[42],1.14 µM
same,IC50,[43],0.62 µM
same,IC50,[44],0.453 µM
same,IC50,[45],> 5.12 µM
same,IC50,[46],2.25 µM
same,IC50,[47],> 5.12 µM
same,IC50,[48],0.616 µM
same,IC50,[49],0.915 µM
same,IC50,[50],> 5.12 µM
CCN(CC)CCNC(=O)c1c(C)[nH]c(/C=C2\C(=O)Nc3ccc(F)cc32)c1C [SUNITINIB],IC50,[1],> 8 µM
same,IC50,[2],> 8 µM
same,IC50,[3],> 8 µM
same,IC50,[4],2.33 µM
same,IC50,[5],> 8 µM
same,IC50,[6],> 8 µM
same,IC50,[7],> 8 µM
same,IC50,[8],> 8 µM
same,IC50,[9],1.29 µM
same,IC50,[10],> 8 µM
same,IC50,[11],2.14 µM
same,IC50,[12],6.43 µM
same,IC50,[13],> 8 µM
same,IC50,[14],> 8 µM
same,IC50,[15],> 8 µM
same,IC50,[16],> 8 µM
same,IC50,[17],3.79 µM
same,IC50,[18],4.21 µM
same,IC50,[19],4.21 µM
same,IC50,[20],> 8 µM
same,IC50,[21],> 8 µM
same,IC50,[22],> 8 µM
same,IC50,[23],> 8 µM
same,IC50,[24],> 8 µM
same,IC50,[25],2.6 µM
same,IC50,[26],> 8 µM
same,IC50,[27],1.82 µM
same,IC50,[28],> 8 µM
same,IC50,[29],2.64 µM
same,IC50,[30],> 8 µM
same,IC50,[31],> 8 µM
same,IC50,[32],> 8 µM
same,IC50,[33],> 8 µM
same,IC50,[34],> 8 µM
same,IC50,[35],> 8 µM
same,IC50,[36],7.38 µM
same,IC50,[37],> 8 µM
same,IC50,[38],> 8 µM
same,IC50,[39],3.06 µM
same,IC50,[40],> 8 µM
same,IC50,[41],4.67 µM
same,IC50,[42],> 8 µM
same,IC50,[43],> 8 µM
same,IC50,[44],1.34 µM
same,IC50,[45],> 8 µM
same,IC50,[46],0.0799 µM
same,IC50,[47],> 8 µM
same,IC50,[48],> 8 µM
same,IC50,[49],> 8 µM
same,IC50,[50],> 8 µM
